Source: the OPERA property sets (Mansouri et al. 2018)

Details: for log10 BCF / log10 biotransformation half-life (days): fish

Row | Compound | melting point [°C] | boiling point [°C] | other results
1 | CNC1=Nc2ccc(Cl)cc2C(c2ccccc2)=[N+]([O-])C1 | 236 |  | 
2 | CC1=CC(=O)O[C@@]2(C1)C[C@H]1CC[C@@H]2CN1C | 54.5 |  | 
3 | Nc1ccncc1 | 158 | 273 | ready biodegradability: not readily biodegradable; log10 BCF: 0.66
4 | CNC(=O)Nc1cccc(Cl)c1 |  |  | log10 Koc (L/kg): 1.93
5 | Cc1cn([C@H]2CC[C@@H](CO)O2)c(=O)[nH]c1=O | 156 |  | 
6 | COC(=O)C1(S(=O)(=O)c2ccccc2)CCC1 | 108 |  | 
7 | Nc1ccc(O)c(C(=O)O)c1 | 283 |  | 
8 | Nc1ccc(Oc2ccc(N)cc2)cc1 |  | 350 | ready biodegradability: not readily biodegradable
9 | CSB(C)C | -84 | 71 | 
10 | Cc1cocn1 |  | 88 | 
11 | CCCNC(=O)OCC |  | 192 | 
12 | CCCCN(CC)C(=O)SCCC | -22 | 202 | log10 Koc (L/kg): 2.8; log10 vapour pressure (mmHg): -1.05; ready biodegradability: readily biodegradable
13 | C[C@@H]1CCC[C@H](C)C1 (racemic) | -82.8 |  | 
14 | O=C1c2ccccc2C(=O)C1c1ccccc1 | 150 |  | 
15 | CCOC(=O)CCN(SN(C)C(=O)Oc1cccc2c1OC(C)(C)C2)C(C)C |  |  | log10 vapour pressure (mmHg): -6.7
16 | CC(C)(C)c1cc(C(C)(C)C)cc(C(C)(C)C)c1 |  |  | ready biodegradability: not readily biodegradable; log10 BCF: 4.36; log10 biotransformation half-life (days): 2.7
17 | Cc1[nH]c(C)c(C)c1C | 111 |  | 
18 | C=C(C)C(=O)OCC(CC)CCCC (stereo not drawn) |  |  | ready biodegradability: readily biodegradable
19 | CC1(CCl)CO1 (stereo not drawn) |  | 122 | ready biodegradability: not readily biodegradable
20 | OCCNC(=S)C(=S)NCCO | 93.3 |  | 
21 | CCOP(=O)(N=C1SCS1)OCC |  |  | log10 vapour pressure (mmHg): -5.19
22 | Cc1ccccc1C(C)C | -71.5 | 178 | log10 vapour pressure (mmHg): 0.176; ready biodegradability: not readily biodegradable
23 | CC1OCCO1 |  | 81.5 | 
24 | CCCCC(CC)CC | -115 | 143 | 
25 | C=CCCCCCC | -102 | 121 | log10 Koa: 3.35; log10 vapour pressure (mmHg): 1.24

Row | Compound | melting point [°C] | boiling point [°C] | other results
26 | O=[N+]([O-])c1cc(Cl)ccc1O | 88.5 |  | ready biodegradability: not readily biodegradable
27 | CC(C)=CCC[C@@H](C)[C@H]1CC[C@H]2[C@@H]3CC=C4C[C@@H](O)CC[C@]4(C)[C@H]3CC[C@]12C | 122 |  | 
28 | CCC | -188 | -42.1 | log10 Koa: 0.97; log10 vapour pressure (mmHg): 3.85; ready biodegradability: readily biodegradable
29 | Oc1ccc(C2(c3ccc(O)cc3)CCCCC2)cc1 |  |  | ready biodegradability: not readily biodegradable
30 | Clc1cc(Cl)cc(Oc2ccccc2)c1 |  |  | log10 vapour pressure (mmHg): -3
31 | CCCCCCCC(=O)CCC | 4.5 |  | 
32 | CCC(=O)C=Cc1ccccc1 | 38.5 |  | 
33 | O=C(/C=C/c1ccc([N+](=O)[O-])cc1)c1ccccc1 | 159 |  | 
34 | CNC[C@H](O)[C@@H](O)[C@H](O)[C@H](O)CO | 128 |  | 
35 | CC(C)(O)C#CC(C)(C)O | 95 | 205 | 
36 | Cc1c(Cl)c(Cl)c(Cl)c(Cl)c1Cl | 225 | 301 | log10 Henry constant (atm·m³/mol): -3.11; log10 BCF: 3.83
37 | CC(=O)c1cccc2ccccc12 | 34 | 297 | log10 vapour pressure (mmHg): -3.41
38 | CC(C)C[C@H](N)C(=O)O | 293 |  | 
39 | Cc1cccc(CO)c1 |  | 216 | 
40 | O=C(O)CP(=O)(O)O | 144 |  | 
41 | C[C@]12CC[C@H]3C(=CCc4cc(O)ccc43)[C@@H]1CCC2=O | 239 |  | 
42 | c1ccc(C2c3ccccc3-c3ccccc32)cc1 | 147 |  | 
43 | COc1nccnc1N(C(C)=O)S(=O)(=O)c1ccc(N)cc1 | 199 |  | 
44 | NS(=O)(=O)c1cc(C(=O)O)ccc1Cl | 257 |  | 
45 | CCC=Cc1ccccc1 | -43.1 | 199 | 
46 | CCN(CC)C(=S)SC(=S)N(CC)CC | 31 |  | 
47 | c1cc2c3c(c1)ccc1ccc4cccc-2c4c13 |  |  | log10 biodegradation half-life (days): 2.54
48 | O=C(O)c1cc(Cl)c(C(=O)O)cc1Cl | 306 |  | 
49 | CCCC(C)=O | -76.9 | 102 | log10 Henry constant (atm·m³/mol): -4.08; log10 Koa: 3.19; log10 vapour pressure (mmHg): 1.55
50 | CN(C)CCN1C(=O)c2ccccc2Nc2cc(Cl)ccc21 | 166 |  | 

Row | Compound | melting point [°C] | boiling point [°C] | other results
51 | COCC(O)COC |  | 169 | 
52 | CCCCN=C=O |  | 115 | log10 vapour pressure (mmHg): 1.25
53 | CC(O)c1ccco1 (stereo not drawn) |  | 162 | 
54 | CC/C=C/C(C)C | -142 | 85.9 | 
55 | Clc1cc(Cl)c(Cl)c(Cl)c1 | 54.5 |  | log10 Henry constant (atm·m³/mol): -2.8; log10 Koa: 5.55; log10 Koc (L/kg): 3.2; log10 vapour pressure (mmHg): -1.26; log10 BCF: 3.59
56 | Cc1cc(N)ccc1N | 64 | 274 | 
57 | C=Cc1ccc(CC)cc1 | -49.7 | 192 | log10 vapour pressure (mmHg): -0.0246; ready biodegradability: not readily biodegradable; log10 BCF: 2.69
58 | Oc1cc(Cl)ccc1Cl | 59 | 211 | log10 vapour pressure (mmHg): -1.25; ready biodegradability: not readily biodegradable; log10 BCF: 1.01
59 | Cc1cc(Cl)cc([N+](=O)[O-])c1 | 61 |  | 
60 | N#CCc1ccccc1F |  | 232 | 
61 | OC(c1ccccc1)c1ccc(Cl)cc1 (stereo not drawn) | 60.8 |  | log10 BCF: 1.79; log10 biotransformation half-life (days): -0.89
62 | Cc1cc2nc3c(=O)[nH]c(=O)nc-3n(C[C@H](O)[C@H](O)[C@H](O)CO)c2cc1C |  |  | ready biodegradability: not readily biodegradable
63 | C[C@]12C=C(C=O)C(=O)C=C1CC[C@@H]1[C@@H]2[C@H](O)C[C@@]2(C)[C@H]1CC[C@]2(C)O | 210 |  | 
64 | Nc1cc(F)c(F)c(F)c1F | 28 |  | 
65 | CCOc1ccc2nc3cc(N)ccc3c(N)c2c1 | 226 |  | 
66 | CCOCCOCCOC(C)=O | -25 | 218 | log10 vapour pressure (mmHg): -1; ready biodegradability: readily biodegradable
67 | CC(C)COCCOCCO |  | 217 | 
68 | CC(C)C1CCC(C(C)C)CC1 (stereo not drawn) |  |  | log10 biotransformation half-life (days): 0.97
69 | CCOC(=O)c1cnc2cc(OCC(C)C)c(OCC(C)C)cc2c1O | 290 |  | 
70 | C=CC(=O)CC |  | 103 | 
71 | COc1cc(NC(=O)C(N=Nc2ccc(-c3ccc(N=NC(C(C)=O)C(=O)Nc4cc(OC)c(Cl)cc4OC)c(Cl)c3)cc2Cl)C(C)=O)c(OC)cc1Cl (stereo not drawn) |  |  | ready biodegradability: not readily biodegradable
72 | c1ccc(Cc2cccc3ccccc23)cc1 | 59.5 | 350 | 
73 | CC(Br)CBr (stereo not drawn) | -55.5 | 142 | log10 vapour pressure (mmHg): 0.894
74 | Nc1ccc2cc3ccc(N)cc3nc2c1 | 285 |  | 
75 | COC(OC)OC |  | 104 | 

Row | Compound | melting point [°C] | boiling point [°C] | other results
76 | O=[N+]([O-])c1cc(Cl)c(Cl)c(Cl)c1Cl |  |  | log10 Koc (L/kg): 4.23; log10 BCF: 1.9; log10 biotransformation half-life (days): -0.69
77 | CC(=O)c1ccc(O)c(O)c1 | 116 |  | 
78 | FC(F)(F)Oc1ccccc1 | -50 | 102 | 
79 | CN1CCN(C2=Nc3cc(Cl)ccc3Nc3ccccc32)CC1 | 184 |  | 
80 | CC(C)CC[N+](=O)[O-] | 97 | 164 | 
81 | Cc1cc[nH]n1 | 36.5 | 204 | 
82 | O=C(Nc1ccc(Cl)c(Cl)c1)c1cc(Cl)cc(Cl)c1O | 161 |  | 
83 | CC1=NN(c2ccc([N+](=O)[O-])cc2)C(=O)C1[N+](=O)[O-] (stereo not drawn) | 116 |  | 
84 | CCCCCCCCCCCCCCCc1ccccc1 | 22 | 373 | log10 vapour pressure (mmHg): -5.14
85 | C=Cn1c2ccccc2c2ccccc21 | 65 |  | 
86 | O=[N+]([O-])c1cc(Cl)ccc1Cl | 56 | 267 | log10 Henry constant (atm·m³/mol): -4.92; ready biodegradability: not readily biodegradable; log10 BCF: 2.05; log10 biotransformation half-life (days): 0.56
87 | O=[N+]([O-])c1cc(F)c(F)cc1F | -11 | 194 | 
88 | O=COCc1ccccc1 |  | 203 | 
89 | CC(C)c1ccccc1C(=O)O |  |  | log10 vapour pressure (mmHg): -3.46
90 | COc1ccc(O[C@@H]2O[C@H](CO)[C@H](O)[C@H](O)[C@H]2O)cc1 | 159 |  | 
91 | COc1cc(O)cc(O)c1 | 80.3 |  | 
92 | O=C(O)c1ccncc1C(=O)O | 256 |  | 
93 | O=C1C(Cl)=C(NC(=O)C(Cl)Cl)C(=O)c2ccccc21 | 212 |  | 
94 | CN=C(O)Sc1ccc(OS(C)(=O)=O)cc1 | 137 |  | 
95 | Cc1ccc(N)cc1F | 31 |  | 
96 | OCc1cccc(I)c1 |  | 252 | 
97 | C[C@]12CC[C@H]3[C@@H](CCC4=CC(=O)CC[C@@]43C)[C@@H]1CC[C@@H]2OC(=O)CCC1CCCC1 | 155 |  | 
98 | CCCCCCCCCCCCCCCCCCC | 32.1 | 330 | log10 biodegradation half-life (days): 1.26; log10 vapour pressure (mmHg): -4.31; ready biodegradability: readily biodegradable
99 | CC1(C)CC1 | -109 | 20.6 | 
100 | CC[C@@H](C(=O)O)c1ccccc1 | 47.5 | 271 | 

Row | Compound | melting point [°C] | boiling point [°C] | other results
101 | FC(F)(Cl)C(Cl)(Cl)Cl | 40.6 | 91.5 | log10 vapour pressure (mmHg): 1.78
102 | CC(=O)CC(=O)Nc1ccc(C)cc1C | 90 |  | ready biodegradability: not readily biodegradable
103 | CC(C)NC(C)C | -61 | 83.9 | log10 vapour pressure (mmHg): 1.9
104 | CC=C(CC)C(=O)NC(N)=O | 198 |  | 
105 | CCCC(C)C(=O)Nc1ccc(C)c(Cl)c1 (stereo not drawn) | 85 |  | log10 Koc (L/kg): 2.76
106 | CCCCCCCCCc1ccc(O)cc1 | 42 |  | log10 Koc (L/kg): 3.84; log10 vapour pressure (mmHg): -3.09; log10 BCF: 2.58; log10 biotransformation half-life (days): -0.23
107 | CCCCCCCCCC(C)C=O (stereo not drawn) |  | 171 | 
108 | COCCOCCOCCO | -44 | 249 | ready biodegradability: readily biodegradable
109 | Nc1cccc(C(=O)O)c1 | 173 |  | ready biodegradability: not readily biodegradable
110 | CCOC(=O)CC(=O)c1ccc([N+](=O)[O-])cc1 | 72 |  | 
111 | S=C=Nc1ccc(N=C=S)cc1 | 132 |  | 
112 | CC(C)c1ccc(NC(=O)N(C)C)cc1 | 158 |  | log10 vapour pressure (mmHg): -7.61
113 | CCC(Br)C(C)Br (stereo not drawn) | -56 | 178 | 
114 | CC(C)(C)C(=O)CCl | -13 | 172 | 
115 | CCCCCCCCCCCCCCCC(=O)OCC | 24 |  | log10 vapour pressure (mmHg): -4.63
116 | CCOC(=O)[C@H](C)Cl |  | 147 | log10 vapour pressure (mmHg): 0.557
117 | CCCCCCCCCCCl | -31.3 | 223 | log10 vapour pressure (mmHg): -2.01
118 | C(=Nc1ccccc1)Nc1ccccc1 | 142 |  | 
119 | CC(=O)[C@@]1(O)CC[C@H]2[C@@H]3CCC4=CC(=O)CC[C@]4(C)[C@H]3CC[C@@]21C | 222 |  | 
120 | CCON=C(CC)C1=C(O)CC(c2c(C)cc(C)cc2C)CC1=O (stereo not drawn) | 106 |  | log10 vapour pressure (mmHg): -8.56
121 | N#C[S-].[K+] | 173 |  | 
122 | CN(C)C(CSC(N)=O)CSC(N)=O |  |  | ready biodegradability: not readily biodegradable
123 | O=[N+]([O-])c1ccc(Br)c(Cl)c1 |  |  | log10 Koc (L/kg): 2.6
124 | CCCCCCCCCCCCC | -5.3 | 235 | log10 biodegradation half-life (days): 1.08; log10 vapour pressure (mmHg): -1.25; ready biodegradability: readily biodegradable; log10 biotransformation half-life (days): 1.03
